The target of one data set is human mGluR5a receptor (Homo sapiens, UniProt P41594). Kind of data set: Cell-based functional Ca2+ mobilization assay (FDSS), potentiation of glutamate EC20 response in H10H cell line. As to conditions: for Emax: percent of maximal glutamate response, human mGluR5 HEK cells; for pEC50 / EC50: HEK cells transfected with human mGluR5 (H10H), presence of glutamate EC20. The procedure:
Human embryonic kidney (HEK) cells transfected with rat mGluR5 were plated in clear bottom assay plates for assay in a Functional Drug Screening System (FDSS). In the alternative assay, HEK cells transfected with human mGluR5 (H10H cell line) were plated for assay in the FDSS. […] The cells were loaded with a Ca^2+-sensitive fluorescent dye (e.g., Fluo-4), and the plates were washed and placed in the FDSS instrument. After establishment of a fluorescence baseline for twelve seconds, the compounds of the present invention were added to the cells, and the response in cells was measured. Alternatively, in various further aspects, after establishment of a fluorescence baseline for about three seconds, the compounds of the present invention were added to the cells, and the response in cells was measured. Five minutes later, an mGluR5 agonist (e.g., glutamate, 3,5-dihydroxyphenylglycine, or quisqualate) was added to the cells, and the response of the cells was measured.
The above described assay operated in two modes. In the first mode, a range of concentrations of the present compounds were added to cells, followed by a single fixed concentration of agonist. If a compound acted as a potentiator, an EC50 value for potentiation and a maximum extent of potentiation by the compound at this concentration of agonist was determined by non-linear curve fitting. In the second mode, several fixed concentrations of the present compounds were added to various wells on a plate, followed by a range of concentrations of agonist for each concentration of present compound; the EC50 values for the agonist at each concentration of compound were determined by non-linear curve fitting. A decrease in the EC50 value of the agonist with increasing concentrations of the present compounds (a leftward shift of the agonist concentration-response curve) is an indication of the degree of mGluR5 potentiation at a given concentration of the present compound. An increase in the EC50 value of the agonist with increasing concentrations of the present compounds (a rightward shift of the agonist concentration-response curve) is an indication of the degree of mGluR5 antagonism at a given concentration of the present compound. The second mode also indicates whether the present compounds also affect the maximum response to mGluR5 to agonists.
The mGluR5 activity was determined using the metabotropic glutamate receptor activity assays in human embryonic kidney cells as described herein, wherein the human embryonic kidney cells were transfected with human mGluR5. The compounds in Table 1 were synthesized with methods identical or analogous to those shown herein. The requisite starting materials were commercially available, described in the literature, or readily synthesized by one skilled in the art of organic synthesis.
Human mGluR5a cDNA in pCMV6-XL6 mammalian expression plasmid was purchased from OriGene Technologies, Inc. (catalogue number SC326357) and subcloned into pcDNA3.1(−). Human embryonic kidney (HEK)293A cells were then transfected with human mGluR5a pcDNA3.1(−) using LipofectAmine2000 (Invitrogen) and monoclones were selected and tested for functional response using a Ca^2+ mobilization assay. Monoclones were named for the species (“H” for human) plus the location on the plate (e.g. “10H”).
HEK cells transfected with the human mGluR5a receptor (H10H cell line) were plated at 15,000 cells/well in clear-bottomed poly-D-lysine-coated assay plates (BD Falcon) in glutamate-glutamine-free growth medium and incubated overnight at 37° C. and 5% CO2. The following day, the growth medium was removed and the cells were washed with assay buffer containing 1× Hank's balanced salt solution (Invitrogen, Carlsbad, Calif.), 20 mM HEPES, 2.5 mM probenecid, pH 7.4 and left with 20 μL of this reagent.

Setting [1] is: HEK293, maximum average response at a single concentration, read-out: Emax.
[2] abbreviates: maximum average response at a single concentration.

Usually melting point stands for the temperature of the solid-liquid transition. As a reminder, the Emax is the maximal effect, on the per cent scale that the assay sets. For orientation: pEC50 means −log10 of the EC50, conventionally taken in molar units.

Like-named read-outs stand apart in the source and are kept apart here.

Sequence of human mGluR5a receptor (P41594 21-1180 isoform P41594-2 limits assumed): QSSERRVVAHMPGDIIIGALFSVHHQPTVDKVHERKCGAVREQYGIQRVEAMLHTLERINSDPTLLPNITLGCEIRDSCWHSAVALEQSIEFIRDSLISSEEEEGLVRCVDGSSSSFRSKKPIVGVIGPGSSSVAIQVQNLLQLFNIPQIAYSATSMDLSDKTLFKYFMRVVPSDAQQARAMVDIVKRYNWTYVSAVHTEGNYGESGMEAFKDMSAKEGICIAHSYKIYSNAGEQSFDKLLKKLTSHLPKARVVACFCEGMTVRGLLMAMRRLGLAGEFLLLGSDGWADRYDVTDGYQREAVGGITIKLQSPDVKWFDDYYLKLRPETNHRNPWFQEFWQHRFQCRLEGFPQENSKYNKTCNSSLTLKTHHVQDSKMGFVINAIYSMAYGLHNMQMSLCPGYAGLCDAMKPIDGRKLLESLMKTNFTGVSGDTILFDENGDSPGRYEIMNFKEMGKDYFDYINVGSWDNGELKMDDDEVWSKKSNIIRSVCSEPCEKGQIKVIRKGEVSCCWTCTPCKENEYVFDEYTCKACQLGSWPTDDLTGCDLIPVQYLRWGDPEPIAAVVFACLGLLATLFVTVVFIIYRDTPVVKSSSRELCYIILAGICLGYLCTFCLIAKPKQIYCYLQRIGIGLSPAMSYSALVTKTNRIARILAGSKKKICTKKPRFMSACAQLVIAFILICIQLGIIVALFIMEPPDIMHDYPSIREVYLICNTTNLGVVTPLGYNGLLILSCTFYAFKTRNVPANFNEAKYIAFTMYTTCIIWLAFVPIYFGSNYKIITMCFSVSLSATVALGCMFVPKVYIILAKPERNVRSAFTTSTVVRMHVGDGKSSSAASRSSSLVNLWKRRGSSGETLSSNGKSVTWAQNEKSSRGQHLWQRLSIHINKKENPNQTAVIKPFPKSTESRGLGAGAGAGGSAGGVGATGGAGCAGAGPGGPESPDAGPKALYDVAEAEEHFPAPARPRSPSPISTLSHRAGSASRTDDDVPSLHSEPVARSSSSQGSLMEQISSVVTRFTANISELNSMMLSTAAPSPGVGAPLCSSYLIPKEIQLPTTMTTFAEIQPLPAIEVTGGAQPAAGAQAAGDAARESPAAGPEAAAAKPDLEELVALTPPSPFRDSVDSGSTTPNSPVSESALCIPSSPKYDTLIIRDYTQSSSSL

In turn, `O=C(c1ccc(F)cc1)N1CCn2nc(COc3ccccc3)cc2C1` [Compound 1] displayed a melting point of 106 °C. In addition, the Emax at human mGluR5a receptor (setting [1]) was 67%. The negative-log EC50 (pEC50) at human mGluR5a receptor (concentration in mol/L) came out at 6.79. Further, the EC50 at human mGluR5a receptor (read-out: EC50) is 161 nM.

`N#Cc1ccc(C(=O)N2CCn3nc(COc4ccccc4)cc3C2)cc1F` [Compound 27] showed a melting point of 60.3 °C. The Emax at human mGluR5a receptor (setting [1]) was determined as 23%. At human mGluR5a receptor (concentration in mol/L), the pEC50 is on record as less than 4.52. The EC50 on human mGluR5a receptor (read-out: EC50) was greater than 30200 nM.

Compound `N#Cc1ccc(C(=O)N2CCn3nc(COc4cccc(F)c4)cc3C2)cc1F` [Compound 32] gave a melting point greater than 300 °C. Besides, the maximal response (Emax) at human mGluR5a receptor (setting [1]) turned out to be 23%. For the same compound, on human mGluR5a receptor (concentration in mol/L), the pEC50 stood at 5.75. For the same compound, the EC50 at human mGluR5a receptor (read-out: EC50) is 1780 nM.

For the compound `O=C(c1ccc(F)cc1F)N1CCn2nc(COc3cccc(F)c3)cc2C1` [Compound 11], the melting point worked out at 79.7 °C. The Emax at human mGluR5a receptor (setting [1]) came out at 82%. The pEC50 at human mGluR5a receptor (concentration in mol/L) was 6.56. At human mGluR5a receptor (read-out: EC50), the EC50 turned out to be 273 nM.

`O=C(c1ncccc1Cl)N1CCn2nc(COc3ccccc3)cc2C1` [Compound 29] gave a melting point of 60 °C. Besides, the Emax on human mGluR5a receptor (setting [1]) worked out at 47%. Besides, the pEC50 at human mGluR5a receptor (concentration in mol/L) was less than 5.00. Besides, the EC50 at human mGluR5a receptor (read-out: EC50) was greater than 10000 nM.

Compound `Cc1c(COc2ccccc2)nn2c1CN(C(=O)c1ccc(F)cc1)CC2` [Compound 57] displayed a melting point of 158.5 °C. Moreover, the Emax at human mGluR5a receptor (setting [1]) came out at 44%. Moreover, the pEC50 at human mGluR5a receptor (concentration in mol/L) is listed as 5.52. Also, the EC50 on human mGluR5a receptor (read-out: EC50) worked out at 3020 nM.

With `Cc1cccnc1C(=O)N1CCn2nc(COc3cccc(F)c3)cc2C1` [Compound 14], the melting point stood at 125.4 °C. Moreover, the Emax at human mGluR5a receptor (setting [1]) came to 51%. In addition, the negative logarithm of the EC50 (pEC50) on human mGluR5a receptor (concentration in mol/L) is less than 5.00. Also, at human mGluR5a receptor (read-out: EC50), the EC50 is greater than 10000 nM.

Consider `CC1Cn2nc(COc3ccccc3)cc2CN1C(=O)c1cccc(C#N)c1` (stereo not shown) [Compound 49], for which the melting point was greater than 300 °C. For the same compound, the Emax at human mGluR5a receptor (setting [1]) was found to be 52%. Moreover, the pEC50 on human mGluR5a receptor (concentration in mol/L) is listed as 5.56. The EC50 at human mGluR5a receptor (read-out: EC50) came to 2750 nM.

Compound `O=C(c1cccc(F)c1)N1CCn2nc(COc3ccc(F)cc3)cc2C1` [Compound 39] had a melting point greater than 300 °C. The Emax at human mGluR5a receptor (setting [1]) stood at 55%. Besides, on human mGluR5a receptor (concentration in mol/L), the pEC50 stood at 6.68. Besides, the EC50 on human mGluR5a receptor (read-out: EC50) came out at 209 nM.

Compound `N#Cc1cc(C(=O)N2CCn3nc(COc4cccc(F)c4)cc3C2)ccc1F` [Compound 33] showed a melting point of 57.1 °C. Further, the maximal response (Emax) on human mGluR5a receptor (setting [1]) was 71%. In addition, on human mGluR5a receptor (concentration in mol/L), the negative-log EC50 (pEC50) is recorded as 5.98. Further, the EC50 on human mGluR5a receptor (read-out: EC50) came out at 1050 nM.

Regarding `CC1Cn2nc(COc3ccccc3)cc2CN1C(=O)c1ccc(F)cc1` (stereo not shown) [Compound 46], the melting point was greater than 300 °C. For the same compound, at human mGluR5a receptor (concentration in mol/L), the pEC50 was less than 4.52. On human mGluR5a receptor (read-out: EC50), the EC50 was greater than 30200 nM. Also, the Emax on human mGluR5a receptor (setting [2]) turned out to be 35%.

Compound `CC1CN(C(=O)c2ccc(F)cc2)Cc2cc(COc3ccccc3)nn21` (racemic) [Compound 16] yielded a melting point of 126.5 °C. Also, at human mGluR5a receptor (setting [1]), the maximal response (Emax) is 77%. Further, the EC50 at human mGluR5a receptor (read-out: EC50) amounted to 172 nM.

With `O=C(c1cncc(F)c1)N1CCn2nc(COc3cccc(F)c3)cc2C1` [Compound 23], the melting point is greater than 300 °C. In addition, the Emax on human mGluR5a receptor (setting [1]) stood at 58%. The EC50 on human mGluR5a receptor (concentration in mol/L, read-out: pEC50 (converted)) is 1510 nM. Also, the EC50 at human mGluR5a receptor (read-out: EC50) was 1370 nM.

Compound `Cc1ccc(C(=O)N2CCn3nc(COc4cccc(F)c4)cc3C2)cn1` [Compound 15] showed a melting point of 88.2 °C. In addition, the maximum response (Emax) on human mGluR5a receptor (setting [1]) is 30%. The pEC50 at human mGluR5a receptor (concentration in mol/L) is given as less than 4.52. Moreover, at human mGluR5a receptor (read-out: EC50), the EC50 was greater than 30200 nM.

In turn, `N#Cc1cc(F)cc(C(=O)N2CCn3nc(COc4cccc(F)c4)cc3C2)c1` [Compound 31] displayed a melting point of 76.8 °C. The Emax at human mGluR5a receptor (setting [1]) is 54%. The negative-log EC50 (pEC50) on human mGluR5a receptor (concentration in mol/L) is recorded as 6.77. Besides, the EC50 at human mGluR5a receptor (read-out: EC50) amounted to 170 nM.

In turn, `N#Cc1cc(F)cc(C(=O)N2CCn3nc(COc4ccccc4)cc3C2)c1` [Compound 26] registered a melting point of 109.8 °C. Moreover, on human mGluR5a receptor (setting [1]), the maximum response (Emax) amounted to 52%. At human mGluR5a receptor (concentration in mol/L), the pEC50 was 7.08. Further, the EC50 at human mGluR5a receptor (read-out: EC50) stood at 83 nM.

Consider `O=C(c1ccc(F)cc1)N1CCn2nc(COc3ccccc3)cc2C1C(F)(F)F` (racemic) [Compound 53], for which the melting point is 53.1 °C. Moreover, at human mGluR5a receptor (setting [1]), the Emax is 67%. On human mGluR5a receptor (read-out: EC50), the EC50 is 2630 nM.

As for `Cc1cnc(C(=O)N2CCn3nc(COc4cccc(F)c4)cc3C2)cn1` [Compound 35], the melting point was 105.5 °C. For the same compound, the maximal effect (Emax) on human mGluR5a receptor (setting [1]) turned out to be 36%. In addition, on human mGluR5a receptor (concentration in mol/L), the negative-log EC50 (pEC50) is given as less than 4.52. In addition, the EC50 on human mGluR5a receptor (read-out: EC50) was greater than 30200 nM.

On to `O=C(c1c(F)cccc1F)N1CCn2nc(COc3ccccc3)cc2C1` [Compound 6], for which the melting point is 95.8 °C. Further, the Emax at human mGluR5a receptor (setting [1]) is 74%. The negative-log EC50 (pEC50) on human mGluR5a receptor (concentration in mol/L) is 6.53. In addition, the EC50 on human mGluR5a receptor (read-out: EC50) came out at 292 nM.

Turning to `O=C(c1ccc(F)c(F)c1)N1CCn2nc(COc3ccccc3)cc2C1` [Compound 4], the melting point worked out at 100.6 °C. The Emax at human mGluR5a receptor (setting [1]) came to 70%. For the same compound, at human mGluR5a receptor (concentration in mol/L), the pEC50 is 6.38. In addition, the EC50 on human mGluR5a receptor (read-out: EC50) was 414 nM.

Compound `CC1CN(C(=O)c2cccc(C#N)c2)Cc2cc(COc3ccccc3)nn21` (stereo not shown) [Compound 43] gave a melting point of 88.8 °C. Besides, the Emax on human mGluR5a receptor (setting [1]) was determined as 72%. The pEC50 on human mGluR5a receptor (concentration in mol/L) was 6.25. The EC50 on human mGluR5a receptor (read-out: EC50) worked out at 562 nM.

Turning to `O=C(c1ccc(F)cc1)N1CCn2nc(COc3cccc(F)c3)cc2C1` [Compound 12], the melting point was 126.9 °C. For the same compound, the Emax at human mGluR5a receptor (setting [1]) was 69%.

The compound `CC1Cn2nc(COc3ccccc3)cc2CN1C(=O)c1ccc(F)cc1` (stereo not shown) [Compound 45] returned a melting point of 53.8 °C. Further, on human mGluR5a receptor (concentration in mol/L), the pEC50 is on record as 6.62. Also, the EC50 at human mGluR5a receptor (read-out: EC50) is 240 nM. At human mGluR5a receptor (setting [2]), the Emax came to 75%.

For the origin of these results see patent US9255103B2, “Substituted pyrazolo[1,5-a]pyrazines as mGluR5 receptor modulators” (Vanderbilt University, priority 2010, dated 2016).
